Assay results taken from paper PMC7481290, “Halogenation as a tool to tune antimicrobial activity of peptoids” (Scientific Reports, 2020).
Converted amounts (≈) assume the structure as drawn. Non-standard residues stand in square brackets, D forms with d. Residues, ends and D or L forms follow the SMILES beside them. Gly(Nα-4-Cl-benzyl) = O=C(O)CNCc1ccc(Cl)cc1; N(4-Br-benzyl)Gly = O=C(O)CNCc1ccc(Br)cc1; Nspe(4-Br) = C[C@H](NCC(=O)O)c1ccc(Br)cc1; N(4-F-Bzl)Gly = O=C(O)CNCc1ccc(F)cc1; NBzl(4-I)Gly = O=C(O)CNCc1ccc(I)cc1; Nspe = C[C@H](NCC(=O)O)c1ccccc1; Nphe = O=C(O)CNCc1ccccc1; Nlys = NCCCCNCC(=O)O

Key:
[1] = system: Methicillin-resistant S. epidermidis ATCC 51625; format: cell-based, Staphylococcus epidermidis; conditions: ATCC 51625, 18 h
Experimental: (§1) Bacterial growth inhibition was determined by using broth microdilution according to the Clinical Laboratory Standards Institute[43]. The antibacterial activity of peptoids was tested against S. aureus ATCC 25923, ATCC29213, and methicillin resistant S. aureus USA 300, methicillin resistant S. epidermidis ATCC 51625, a biofilm producing methicillin resistant S. epidermidis ET-024[44], P. aeruginosa Pa01 (H103), and E. coli ATCC 25922. Bacteria, grown on agar plates for 18 h at 37 °C, were diluted to ∼1 × 10^8 CFU/mL in Mueller‐Hinton Broth II (MHB II). Twofold serial dilutions of peptoids in MHB II were inoculated with bacteria to achieve a final concentration of 5 × 10^5 CFU/mL in polypropylene 96 U‐well microtiter plates (Corning 3,897; ThermoFisher Scientific, Roskilde), followed by incubation at 37 °C in ambient air for 18 h. The MIC values were determined as the lowest concentration showing no visible bacterial growth. Experiments were performed twice (in technical triplicates) on 2 different days.

[2] = system: Methicillin-resistant S. epidermidis ET-024; format: cell-based, Staphylococcus epidermidis; conditions: Methicillin-resistant ET-024, 18 h
Experimental: as §1

[3] = system: P. aeruginosa PA01 (H103); format: cell-based, Pseudomonas aeruginosa; conditions: H103, 18 h
Experimental: as §1

E. coli ATCC 25922 = format: cell-based, Escherichia coli; conditions: ATCC 25922, 18 h
Experimental: as §1

S. aureus ATCC 29213 = format: cell-based, Staphylococcus aureus; conditions: ATCC 29213, 18 h
Experimental: as §1

[4] = system: Methicillin-resistant S. aureus USA 300; format: cell-based, Staphylococcus aureus; conditions: USA 300, 18 h
Experimental: as §1

S. aureus ATCC 25923 = format: cell-based, Staphylococcus aureus; conditions: ATCC 25923, 18 h
Experimental: as §1

Structure (SMILES) | Minimal inhibitory concentration MRSE^e [1] | Minimal inhibitory concentration MRSE^d [2] | Minimal inhibitory concentration PA^g [3] | Minimal inhibitory concentration EC^f (E. coli ATCC 25922) | Minimal inhibitory concentration SA^b (S. aureus ATCC 29213) | Minimal inhibitory concentration MRSA^c [4] | Minimal inhibitory concentration SA^a (S. aureus ATCC 25923) | MIC MRSE^d [1] | MIC MRSE^c [2] | MIC PA^f [3] | MIC EC^e (E. coli ATCC 25922) | MIC MRSA^b [4] | MIC SA^a (S. aureus ATCC 25923)
NCCCCNCC(=O)N(CC(=O)N(CCCCN)CC(=O)N(CC(=O)N(CCCCN)CC(=O)N(CC(N)=O)Cc1ccc(F)cc1)Cc1ccc(F)cc1)Cc1ccc(F)cc1 [Compound 2] (H-[Nlys][N(4-F-Bzl)Gly][Nlys][N(4-F-Bzl)Gly][Nlys][N(4-F-Bzl)Gly]-NH2) | 512 µg/mL (≈ 571 µM) | 128 µg/mL (≈ 143 µM) | > 512 µg/mL | 512 µg/mL (≈ 571 µM) | > 512 µg/mL | 512 µg/mL (≈ 571 µM) | > 512 µg/mL | – | – | – | – | – | –
NCCCCNCC(=O)N(CC(=O)N(CCCCN)CC(=O)N(CC(=O)N(CCCCN)CC(=O)N(CC(N)=O)Cc1ccc(Cl)cc1)Cc1ccc(Cl)cc1)Cc1ccc(Cl)cc1 [Compound 3] (H-[Nlys][Gly(Nα-4-Cl-benzyl)][Nlys][Gly(Nα-4-Cl-benzyl)][Nlys][Gly(Nα-4-Cl-benzyl)]-NH2) | 8 µg/mL (≈ 8.45 µM) | 16 µg/mL (≈ 16.9 µM) | 512 µg/mL (≈ 541 µM) | 512 µg/mL (≈ 541 µM) | 64 µg/mL (≈ 67.6 µM) | 16 µg/mL (≈ 16.9 µM) | 64 µg/mL (≈ 67.6 µM) | – | – | – | – | – | –
NCCCCNCC(=O)N(CC(=O)N(CCCCN)CC(=O)N(CC(=O)N(CCCCN)CC(=O)N(CC(N)=O)Cc1ccc(Br)cc1)Cc1ccc(Br)cc1)Cc1ccc(Br)cc1 [Compound 4] (H-[Nlys][N(4-Br-benzyl)Gly][Nlys][N(4-Br-benzyl)Gly][Nlys][N(4-Br-benzyl)Gly]-NH2) | 4 µg/mL (≈ 3.7 µM) | 4 µg/mL (≈ 3.7 µM) | > 512 µg/mL | 64 µg/mL (≈ 59.3 µM) | 16 µg/mL (≈ 14.8 µM) | 16 µg/mL (≈ 14.8 µM) | 16 µg/mL (≈ 14.8 µM) | – | – | – | – | – | –
NCCCCNCC(=O)N(CC(=O)N(CCCCN)CC(=O)N(CC(=O)N(CCCCN)CC(=O)N(CC(N)=O)Cc1ccc(F)cc1)Cc1ccccc1)Cc1ccc(F)cc1 [Compound 6] (H-[Nlys][N(4-F-Bzl)Gly][Nlys][Nphe][Nlys][N(4-F-Bzl)Gly]-NH2) | 512 µg/mL (≈ 582 µM) | 256 µg/mL (≈ 291 µM) | > 512 µg/mL | > 512 µg/mL | > 512 µg/mL | > 512 µg/mL | > 512 µg/mL | – | – | – | – | – | –
NCCCCNCC(=O)N(CC(=O)N(CCCCN)CC(=O)N(CC(=O)N(CCCCN)CC(=O)N(CC(N)=O)Cc1ccc(Cl)cc1)Cc1ccccc1)Cc1ccc(Cl)cc1 [Compound 7] (H-[Nlys][Gly(Nα-4-Cl-benzyl)][Nlys][Nphe][Nlys][Gly(Nα-4-Cl-benzyl)]-NH2) | 32 µg/mL (≈ 35.1 µM) | 64 µg/mL (≈ 70.2 µM) | 512 µg/mL (≈ 561 µM) | 256 µg/mL (≈ 281 µM) | 256 µg/mL (≈ 281 µM) | 128 µg/mL (≈ 140 µM) | 256 µg/mL (≈ 281 µM) | – | – | – | – | – | –
NCCCCNCC(=O)N(CC(=O)N(CCCCN)CC(=O)N(CC(=O)N(CCCCN)CC(=O)N(CC(N)=O)Cc1ccc(Br)cc1)Cc1ccccc1)Cc1ccc(Br)cc1 [Compound 8] (H-[Nlys][N(4-Br-benzyl)Gly][Nlys][Nphe][Nlys][N(4-Br-benzyl)Gly]-NH2) | 16 µg/mL (≈ 16 µM) | 32 µg/mL (≈ 32 µM) | 256 µg/mL (≈ 256 µM) | 256 µg/mL (≈ 256 µM) | 64 µg/mL (≈ 63.9 µM) | 64 µg/mL (≈ 63.9 µM) | 128 µg/mL (≈ 128 µM) | – | – | – | – | – | –
NCCCCNCC(=O)N(CC(=O)N(CCCCN)CC(=O)N(CC(=O)N(CCCCN)CC(=O)N(CC(N)=O)Cc1ccc(I)cc1)Cc1ccccc1)Cc1ccc(I)cc1 [Compound 9] (H-[Nlys][NBzl(4-I)Gly][Nlys][Nphe][Nlys][NBzl(4-I)Gly]-NH2) | 4 µg/mL (≈ 3.65 µM) | 16 µg/mL (≈ 14.6 µM) | 256 µg/mL (≈ 234 µM) | 256 µg/mL (≈ 234 µM) | 16 µg/mL (≈ 14.6 µM) | 16 µg/mL (≈ 14.6 µM) | 64 µg/mL (≈ 58.5 µM) | – | – | – | – | – | –
NCCCCNCC(=O)N(CC(=O)N(CCCCN)CC(=O)N(CC(=O)N(CCCCN)CC(=O)N(CC(=O)N(CCCCN)CC(=O)N(CC(N)=O)Cc1ccc(F)cc1)Cc1ccc(F)cc1)Cc1ccc(F)cc1)Cc1ccc(F)cc1 [Compound 11] (H-[Nlys][N(4-F-Bzl)Gly][Nlys][N(4-F-Bzl)Gly][Nlys][N(4-F-Bzl)Gly][Nlys][N(4-F-Bzl)Gly]-NH2) | 32 µg/mL (≈ 26.9 µM) | 64 µg/mL (≈ 53.8 µM) | > 512 µg/mL | 128 µg/mL (≈ 108 µM) | 256 µg/mL (≈ 215 µM) | 256 µg/mL (≈ 215 µM) | 256 µg/mL (≈ 215 µM) | – | – | – | – | – | –
NCCCCNCC(=O)N(CC(=O)N(CCCCN)CC(=O)N(CC(=O)N(CCCCN)CC(=O)N(CC(=O)N(CCCCN)CC(=O)N(CC(N)=O)Cc1ccc(Cl)cc1)Cc1ccc(Cl)cc1)Cc1ccc(Cl)cc1)Cc1ccc(Cl)cc1 [Compound 12] (H-[Nlys][Gly(Nα-4-Cl-benzyl)][Nlys][Gly(Nα-4-Cl-benzyl)][Nlys][Gly(Nα-4-Cl-benzyl)][Nlys][Gly(Nα-4-Cl-benzyl)]-NH2) | 1 µg/mL (≈ 0.796 µM) | 2 µg/mL (≈ 1.59 µM) | > 512 µg/mL | 64 µg/mL (≈ 50.9 µM) | 4 to 8 µg/mL | 2 µg/mL (≈ 1.59 µM) | 4 µg/mL (≈ 3.18 µM) | – | – | – | – | – | –
NCCCCNCC(=O)N(CC(=O)N(CCCCN)CC(=O)N(CC(=O)N(CCCCN)CC(=O)N(CC(=O)N(CCCCN)CC(=O)N(CC(N)=O)Cc1ccc(Br)cc1)Cc1ccc(Br)cc1)Cc1ccc(Br)cc1)Cc1ccc(Br)cc1 [Compound 13] (H-[Nlys][N(4-Br-benzyl)Gly][Nlys][N(4-Br-benzyl)Gly][Nlys][N(4-Br-benzyl)Gly][Nlys][N(4-Br-benzyl)Gly]-NH2) | 4 µg/mL (≈ 2.79 µM) | 2 µg/mL (≈ 1.39 µM) | > 512 µg/mL | 64 µg/mL (≈ 44.6 µM) | 8 µg/mL (≈ 5.58 µM) | 2 µg/mL (≈ 1.39 µM) | 4 µg/mL (≈ 2.79 µM) | – | – | – | – | – | –
C[C@@H](c1ccc(Br)cc1)N(CC(N)=O)C(=O)CN(C(=O)CN(CCCCN)C(=O)CN(C(=O)CN(C(=O)CNCCCCN)[C@@H](C)c1ccccc1)[C@@H](C)c1ccccc1)[C@@H](C)c1ccccc1 [Compound 49] (H-[Nlys][Nspe][Nspe][Nlys][Nspe][Nspe(4-Br)]-NH2) | – | – | – | – | – | – | – | 8 µg/mL (≈ 8.02 µM) | 16 µg/mL (≈ 16 µM) | 64 µg/mL (≈ 64.2 µM) | > 64 µg/mL | 32 µg/mL (≈ 32.1 µM) | 64 µg/mL (≈ 64.2 µM)
C[C@@H](c1ccccc1)N(CC(N)=O)C(=O)CN(C(=O)CN(CCCCN)C(=O)CN(C(=O)CN(C(=O)CNCCCCN)[C@@H](C)c1ccccc1)[C@@H](C)c1ccccc1)[C@@H](C)c1ccccc1 [Pep1-6mer] (H-[Nlys][Nspe][Nspe][Nlys][Nspe][Nspe]-NH2) | – | – | – | – | – | – | – | 64 µg/mL (≈ 69.7 µM) | 64 µg/mL (≈ 69.7 µM) | 256 µg/mL (≈ 279 µM) | 1,024 μg/mL | 256 µg/mL (≈ 279 µM) | 256 µg/mL (≈ 279 µM)
